Results taken from patent US20250049785A1, “METHODS FOR THE TREATMENT OF GLIOBLASTOMA THAT MINIMIZE RADIATION DAMAGE IN SUSCEPTIBLE PATIENTS” (Rhode Island Hospital, priority 2021, published 2025).

Assays:
[1] = system: IDH-1 wild-type glioblastoma; assay: Case presentation: elderly glioblastoma patient treated with involved-field radiotherapy and concomitant daily TMZ; type: in vivo, human
Source text: A right-handed person had developed confusion, word-finding difficulty and slurred speech. These symptoms included making phone calls to their spouse and asking their non-sensible questions. They lost their words intermittently and forgot names of their family members on a number of occasions. They recounted old stories as if they were perseverating and answered questions in the affirmative without actually hearing the question. Their mood also became more irritable. Their past medical history was notable for a skull fracture after fall from horseback riding when they were a teenager. The patient had undergone a neurocognitive evaluation from a memory disorder clinic in a major academic medical center and they had been diagnosed with a non-specific memory disorder.
The patient underwent a gross total resection of the mass 4 days after the MRI. […] Immunohistochemical staining was negative for IDH-1 R132H mutation but positive for ATRX, GFAP, Olig-2 and p53.
The radiation administered consisted of standard external beam radiotherapy. The left temporal postsurgical cavity as well as the ipsilateral putamen and globus pallidus were included in the maximum 6,000 cGy isodose line (see FIG. 2). The brainstem was covered in the 3,000 cGy isodose line while the contralateral putamen and globus pallidus received up to 1,800 cGy of radiation.
They became more forgetful and developed imbalance. […]

[2] = bilateral hippocampal sparing whole brain radiation with memantine; cited from earlier work

| SMILES | cognitive status after treatment ([1]; after radiation (up to 6,000 cGy) and TMZ, patient with diffuse Lewy body disease at autopsy) | haematological toxicity limiting chemotherapy ([1]; person, concomitant daily TMZ with involved-field radiotherapy, only two weeks of chemotherapy administered) | neurocognitive function versus traditional fractionated whole brain radiotherapy [2] |
| --- | --- | --- | --- |
| Cn1nnc2c(C(N)=O)ncn2c1=O [TMZ, temozolomide] | rapidly deteriorated | low blood counts | – |
| CC12CC3CC(C)(C1)CC(N)(C3)C2 [memantine] | – | – | preserves neurocognitive function better |
